Assay results from US20120190707A1, “SELECTIVE INHIBITORS OF AKT AND METHODS OF USING SAME” (priority 2008, published 2012).

Assays:
MCF7 cells = assay: Cell death by trypan blue staining, MCF7; type: cell-based; conditions: 5 micro.M, 4 hours
Description: (A) MeWo melanoma cells growing in 60 mm plates were treated with the indicated concentration of the inhibitor for 4 h before proteins were prepared for western blot analysis using the indicated antibodies. Level of beta.actin was monitored as a control for protein loading. (B) Experiment was performed as indicated in panel A, except that cells were harvested after 24 h for analysis of cell death using trypan blue staining. (C) Melanoma (MeWo), prostate cancer (PC3) and breast cancer (MCF7) cells were treated with BI-69A11 at the indicated concentrations; levels of AKT phosphorylation or expression were assessed 4 h later. The level of beta.actin used as a control for protein loading. (D) Experiment was performed as indicated in panel C, except that cells were harvested after 4 h for analysis of cell death using trypan blue staining.
For the proliferation assays, cells were treated as described above. However, instead of scraping cells into the serum-free medium, floating cells were collected in a 15 mL centrifuge tube whereas adherent cells trypsinized gently. The total cell population was pooled and counted on a hemocytometer after staining with Trypan Blue.

[1] = tested on: UACC 903 melanoma xenografts; assay: UACC 903 melanoma xenografts in nude mice; type: in vivo
Description: (A) Nude mice were subcutaneously injected with UACC 903 cells and tumors were allowed to reach an approximate size of 1 mm^3 before intraperitoneal treatment was started; treatment was performed twice per week for 3 weeks with the indicated concentrations of BI-69A11. Each of the experimental groups consisted of 10 mice that were subjected to treatment with the indicated concentration of BI-69A11. […] Tumors were measured with calipers at the indicated time points. The mice were sacrificed and tumors harvested at the end of this period were measured and weighed to determine tumor volume and mass. Blue bars represent control-vehicle treated group; yellow bars represent the 5 mg/Kg treatment group; the orange and green bars represent the 1 and 2 mg/Kg treatment groups, respectively. (B) Analysis of cell death in the tumors was performed using Tunel staining. Shown are representative pictures for control tumors (right) and a treatment group (5 mg/Kg; left). (C) Quantification of Tunel staining in the different tumor groups. Samples from each of the tumors were subjected to Tunel staining which was quantified by Aperio ImageScope and confirmed by visual inspection of representative samples. The percentage of Tunel positive cells is indicated in the graph. […]
In light of the efficient cell death elicited by BI-69A11, we assessed its activity on tumor growth in mouse xenografts. […]
For the tumor studies, UACC 903 cells […] were injected subcutaneously and tumor size was monitored using calipers twice per week. […] At the end of the study, tumors were harvested, weighed and measured.
For the tunel assay and quantitative analysis, the detection of nuclei with fragmented DNA by terminal deoxyribonucleotidyl transferase-mediated dUTP nick end labeling (TUNEL) was accomplished using the ApopTag Peroxidase In situ Apoptosis Detection Kit (Chemicon, Temecula, Calif., US) according to the instructions of the manufacturer. […]

NRAS/Ink4a mice = assay: Melanoma development in NRAS/Ink4a mice; type: in vivo
Description: The NRAS/Ink4a mice harbor a Q61K NRAS activating mutation, as is seen in 15% of human melanomas, on an Ink4a-deficient background, which mimics the mutations often seen in this locus (p16) in human melanoma.
The NRAS/Ink4a mouse develops melanoma with penetrance of about 25-50% which is often accompanied by metastasis to the lymph nodes.
To examine the effect of BI-69A11 treatment on in vivo melanoma development, BI-69A11 was administered to a cohort of 30 mice twice per week (IP, 0.5 mg/kg), starting at week 28 after NRAS expression. A control group of 30 mice received the control vehicle formulation. In this model, by 28 weeks many mice already developed melanoma. Those were not included in our study which was restricted to animals that have not yet developed melanoma. Nevertheless, in a clinical setting, preventive treatment could be administered prior to tumor development, at a stage where early stages of development had been initiated.
NRAS expression was induced in NRAS/INK4a mice (time 0) and the mice were maintained for 40 weeks. Starting at 28 weeks, animals received BI-69A11 at 0.5 mg/kg by IP injection twice weekly.
NRAS expression was induced in NRAS/INK4a mice and 28 weeks later treatment with BI-69A11 was initiated. Internal tumors developed in this model were fibrosarcomas, whereas the skin tumors were melanomas (confirmed by immunostaining with S100 and DCT).
An additional experimental group included animals from the same melanoma model, albeit, those were treated earlier (after 10 weeks rather than 28).

[2] = 0.5-2.0 mg/kg intra-peritoneally twice per week, 3 weeks
[3] = IP 0.5 mg/kg twice per week from week 28

## O=C(/C=C/c1nc2ccccc2[nH]1)c1c(O)nc2ccc(Cl)cc2c1-c1ccccc1 [Compound 2, (E)-3-(3-(1H-benzo[d]imidazol-2-yl)acryloyl)-6-chloro-4-phenylquinolin-2(1H)-one]
MCF7 cells
  viability of MCF7 cells: did not affect
[1]; [2]
  growth of the melanoma tumors: effectively inhibits further growth
  regression of the tumors: efficient regression
[1]; treatment groups 0.5-2.0 mg/kg
  apoptosis in tumors by Tunel staining, compared with control tumors: higher degrees of apoptosis
NRAS/Ink4a mice; [3]
  inhibition in the fibrosarcoma group: ~50%
  inhibition of melanomas: ~68%
  share of the 25 melanomas that developed in the treated group: 32%
NRAS/Ink4a mice; IP 0.5 mg/kg twice per week from week 28, up to 40 weeks, 30 tumors in control group
  total number of tumors developed: 19
NRAS/Ink4a mice; IP 0.5 mg/kg twice per week from week 28, control 17
  number of melanomas: 8
NRAS/Ink4a mice; mouse, in vivo
  prevention with administration after 10 weeks compared with after 28 weeks: as effective as
